In series [1] the target is T1, Sphingosine 1-phosphate receptor 1 (Homo sapiens, UniProt P21453). Briefly: Agonist activity at S1P1 (unknown origin) expressed in human HEK293/Galpha15 cells assessed as Ca2+ activation at 1 uM measured for 2 hrs by FLIPR analysis relative to control. It is filed as functional, cell-based.
Series [2] has as its target T1, Sphingosine 1-phosphate receptor 1. Briefly: Agonist activity at S1P1 (unknown origin) expressed in PathHunter CHO-K1 EDG1 beta-arrestin cells assessed as beta-arrestin2 recruitment at 1 uM incubated for 90 mins by chemiluminescence based assay relative to control. The series is classed as functional, cell-based. Background: Activated receptors often draw arrestin, which recruitment assays turn into a signal.

Series [3] shares this target. Put plainly: Agonist activity at S1P1 (unknown origin) expressed in PathHunter CHO-K1 EDG1 beta-arrestin cells assessed as beta-arrestin2 recruitment incubated for 90 mins by chemiluminescence based assay. The series is classed as functional, cell-based.
For series [4] the target is unchanged. Put plainly: Agonist activity at S1P1 (unknown origin) expressed in human HEK293/Galpha15 cells assessed as Ca2+ activation measured for 2 hrs by FLIPR analysis. It is filed as functional, cell-based.
The nature of series [5]: Microsomal stability in mouse liver microsomes assessed as parent compound remaining preincubated for 5 mins followed by NADPH addition measured after 30 mins by LC-MS/MS analysis. The following applies: time 35 min, read-out: Stability. The series is classed as ADME, Microsome.
Series [6] in a line: Microsomal stability in human liver microsomes assessed as parent compound remaining preincubated for 5 mins followed by NADPH addition measured after 30 mins by LC-MS/MS analysis. The series is classed as ADME, Microsome. The following applies: time 35 min, read-out: Stability. (In general: Liver microsomes are a subcellular fraction often used to study metabolism.)

pEC50: −log10 of the molar value.

T1 sequence (P21453 whole entry): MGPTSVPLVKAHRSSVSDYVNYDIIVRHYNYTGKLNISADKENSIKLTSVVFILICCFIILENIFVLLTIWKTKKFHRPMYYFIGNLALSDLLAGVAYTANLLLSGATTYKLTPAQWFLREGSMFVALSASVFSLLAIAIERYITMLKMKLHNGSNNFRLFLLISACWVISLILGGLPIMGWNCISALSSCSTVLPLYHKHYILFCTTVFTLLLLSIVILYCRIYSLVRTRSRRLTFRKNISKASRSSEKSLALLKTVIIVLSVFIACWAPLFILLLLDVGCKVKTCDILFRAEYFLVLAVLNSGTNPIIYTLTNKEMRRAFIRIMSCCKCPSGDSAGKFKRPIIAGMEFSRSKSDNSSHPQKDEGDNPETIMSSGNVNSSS

In general, pEC50 refers to the EC50 on a negative log10 scale, so that one unit is a factor of ten. With `COC(=O)CCN1CCc2cc(OCc3ccc(OC(C)C)c(C#N)c3)ccc2C1`, the Activity turned out to be 40% in series [1] (filed as agonist) and 91% in series [2] (filed as agonist). Besides, the pEC50 in series [3] is 6.48.
As for `CC(C)Oc1ccc(COc2ccc3c(c2)CCN(CCO)C3)cc1C#N`, the Activity in series [1] came to 7%; in series [2] it was 32%.
Consider `CC(C)Oc1ccc(COc2ccc3c(c2)CCN(C(=O)CCCNS(C)(=O)=O)C3)cc1C#N`, for which the Activity in series [1] stood at 6%; in series [2] (filed as agonist), 68%. Further, the pEC50 in series [3] was 6.13.
`CC(C)Oc1ccc(COc2ccc3c(c2)CCN(S(=O)(=O)CCC(=O)O)CC3)cc1C#N`: the figures for the Activity in series [1] and in series [2] were 9% and 25%, respectively.
Take `CC(C)Oc1ccc(C(=O)Nc2ccc3c(c2)CCN(S(=O)(=O)CCC(=O)O)C3)cc1C#N`: the Activity in series [1] turned out to be 18%; in series [2] it was 15%.
As for `CC(C)Oc1ccc(COc2ccc3c(c2)CCN(CCC(=O)O)C3C)cc1C#N` (configuration not stated), the figures for the Activity in series [1] (filed as agonist) and in series [2] (filed as agonist) were 69% and 74%, respectively. Besides, the results for the negative-log EC50 (pEC50) in series [4] and in series [3] were 6.28 and 6.98, respectively.
For the compound `CNC(=O)CCC(=O)N1CCc2cc(OCc3ccc(OC(C)C)c(C#N)c3)ccc2C1`, the values for the Activity in series [1] and in series [2] (filed as agonist) were 39% and 82%, respectively. In addition, the negative-log EC50 (pEC50) in series [3] was 5.83.
On to `CC(=O)NCCCC(=O)N1CCc2cc(OCc3ccc(OC(C)C)c(C#N)c3)ccc2C1`, for which the values for the Activity in series [1] (filed as agonist) and in series [2] (filed as agonist) were 55% and 105%, respectively. Also, the values for the pEC50 in series [4] and in series [3] were 5.90 and 6.37, respectively.
For `CC(C)Oc1ccc(COc2ccc3c(c2)CCN(C(=O)CCC(N)=O)C3)cc1C#N` the same measures were 47%, 91%, 5.65 and 6.96.
As to `CC(C)Oc1ccc(COc2cccc3c2CCN(S(=O)(=O)CCCO)C3)cc1C#N`, the values for the Activity in series [1] and in series [2] were 3% and 1%, respectively.
Turning to `CC(C)Oc1ccc(COc2ccc3c(c2)CCCN3S(=O)(=O)CCCO)cc1C#N`, the Activity in series [1] is 3%; in series [2], 35%.
With `CC(C)Oc1ccc(COc2cccc3c2CCN(S(=O)(=O)CCC(=O)O)C3)cc1C#N`, the Activity worked out at 4% in series [1] and 1% in series [2].
Taken in the same sequence, the figures for `COC(=O)CCS(=O)(=O)N1CCc2cc(NC(=O)c3ccc(OC(C)C)c(C#N)c3)ccc2C1` were 7% and 7%.
In the case of `COC(=O)CCS(=O)(=O)N1CCc2cc(OCc3ccc(OC(C)C)c(C#N)c3)ccc2C1`, the Activity is 9% in series [1] and 103% in series [2] (filed as agonist). Further, in series [3], the pEC50 is 7.22.
Taken in the same sequence, the figures for `CC(C)Oc1ccc(COc2ccc3c(c2)CCN(C(=O)CCO)C3)cc1C#N` were 36%, 88% and 6.73.
In the case of `COC(=O)CS(=O)(=O)N1CCc2cc(OCc3ccc(OC(C)C)c(C#N)c3)ccc2C1`, the Activity in series [1] turned out to be 6%; in series [2] (filed as agonist) it was 89%. In addition, in series [3], the pEC50 was 6.55.
Taken in the same sequence, the figures for `CC(C)Oc1ccc(COc2ccc3c(c2)CCN(S(=O)(=O)CCCO)C3)cc1C#N` were 6%, 72% and 6.30.
Turning to `CC(C)Oc1ccc(COc2ccc3c(c2)OCCN(S(=O)(=O)CCO)C3)cc1C#N`, the Activity in series [1] (filed as agonist) turned out to be 65%; in series [2] (filed as agonist), 96%. In addition, the pEC50 was 6.17 in series [4] and 7.65 in series [3].
Taken in the same sequence, the figures for `CC(C)Oc1ccc(COc2ccc3c(c2)CCN(CCCC(=O)O)C3)cc1C#N` were 79%, 91%, 7.01 and 7.01.
Consider `COC(=O)CCS(=O)(=O)N1CCc2cc(Nc3ccc(OC(C)C)c(C#N)c3)ccc2C1`, for which the Activity in series [1] was determined as 5%; in series [2], 3%.
For the compound `CC(C)Oc1ccc(COc2ccc3c(c2)CCN(C(=O)CCC(=O)O)C3C)cc1C#N` (configuration not stated), the Activity turned out to be 57% in series [1] (filed as agonist) and 40% in series [2] (filed as agonist). In addition, the pEC50 in series [4] was 6.02.
Take `COC(=O)CCCN1CCc2cc(OCc3ccc(OC(C)C)c(C#N)c3)ccc2C1`: the Activity is 7% in series [1] and 91% in series [2] (filed as agonist). Also, in series [3], the pEC50 was 6.81.
Regarding `CC(C)Oc1ccc(COc2ccc3c(c2)CCN(S(=O)(=O)CC(=O)O)C3)cc1C#N`, the Activity in series [1] (filed as agonist) was determined as 85%; in series [2] (filed as agonist), 92%. The pEC50 was 7.05 in series [4] and 6.79 in series [3].
Regarding `COC(=O)CCS(=O)(=O)N1CCc2cc(NCc3ccc(OC(C)C)c(C#N)c3)ccc2C1`, the values for the Activity in series [1] and in series [2] were 13% and 26%, respectively.
Consider `CC(C)Oc1ccc(COc2ccc3c(c2)CCN(CC(=O)O)C3)cc1C#N`, for which the Activity came to 56% in series [1] (filed as agonist) and 67% in series [2] (filed as agonist). In addition, the pEC50 is 8.98 in series [4] and 6.16 in series [3].
On to `CC(C)Oc1ccc(COc2ccc3c(c2)CCN(S(=O)(=O)CC(=O)O)C3C)cc1C#N` (configuration not stated), for which the Activity is 21% in series [1] and 17% in series [2].
Taken in the same sequence, the figures for `CC(C)Oc1ccc(COc2ccc3c(c2)CCN(C(C)C(=O)O)C3)cc1C#N` (configuration not stated) were 10% and 18%.
For `COC(=O)CCS(=O)(=O)N1CCc2cc(N(C)Cc3ccc(OC(C)C)c(C#N)c3)ccc2C1` the same measures were 12% and 5%.
Consider `CC(C)Oc1ccc(COc2ccc3c(c2)CCN(S(=O)(=O)CCCO)C3C)cc1C#N` (configuration not stated), for which the Activity stood at 12% in series [1] and 45% in series [2] (filed as agonist).
With `COC(=O)CN1CCc2cc(OCc3ccc(OC(C)C)c(C#N)c3)ccc2C1`, the Activity in series [1] came out at 13%; in series [2], 32%.
Take `CC(C)Oc1ccc(COc2ccc3c(n2)CCN(S(=O)(=O)CCCO)C3)cc1C#N`: the values for the Activity in series [1] and in series [2] (filed as agonist) were 10% and 118%, respectively. The pEC50 in series [3] was 6.46.
For `CC(C)Oc1ccc(COc2ccc3c(c2)CN(CCC(=O)O)CC3)cc1C#N`, the Activity in series [1] was determined as 1%; in series [2], 2%.
Taken in the same sequence, the figures for `CC(C)Oc1ccc(COc2ccc3c(c2)CN(S(=O)(=O)CCCO)CC3)cc1C#N` were 3% and 7%.
Taken in the same sequence, the figures for `CC(C)Oc1ccc(COc2ccc3c(n2)CCN(C(=O)CCC(=O)O)C3)cc1C#N` were 14% and 26%.
Taken in the same sequence, the figures for `CC(C)Oc1ccc(CN(C)c2ccc3c(c2)CCN(S(=O)(=O)CCC(=O)O)C3)cc1C#N` were 8% and 9%.
For `CC(C)Oc1ccc(COc2cccc3c2CCN(CCC(=O)O)C3)cc1C#N`, the values for the Activity in series [1] and in series [2] were 6% and 2%, respectively.
Turning to `CC(=O)NCCC(=O)N1CCc2cc(OCc3ccc(OC(C)C)c(C#N)c3)ccc2C1`, the figures for the Activity in series [1] (filed as agonist) and in series [2] (filed as agonist) were 41% and 117%, respectively. The remaining at 0.5 h in series [5] came to 14.9%; in series [6] it was 29.7%. Moreover, the pEC50 is 5.77 in series [4] and 6.56 in series [3].
Take `CC(C)Oc1ccc(COc2ccc3c(c2)CN(CCC(=O)O)CCC3)cc1C#N`: the Activity came to 13% in series [1] and 6% in series [2].
On to `CC(C)Oc1ccc(COc2ccc3c(c2)CCN(C(=O)CC(=O)O)C3)cc1C#N`, for which the Activity in series [1] (filed as agonist) stood at 64%; in series [2] (filed as agonist), 42%. Moreover, in series [4], the negative-log EC50 (pEC50) is 6.10.
On to `CC(C)Oc1ccc(COc2ccc3c(c2)CCN(CCCO)C3)cc1C#N`, for which the Activity was 5% in series [1] and 30% in series [2].
Taken in the same sequence, the figures for `CC(C)Oc1ccc(COc2ccc3c(c2)CN(S(=O)(=O)CCC(=O)O)CC3)cc1C#N` were 3% and 4%.
For `CC(C)Oc1ccc(COc2ccc3c(c2)CCCN(CCC(=O)O)C3)cc1C#N` the same measures were 3% and 2%.
As for `CC(C)Oc1ccc(COc2ccc3c(c2)CN(S(=O)(=O)CCC(=O)O)CCC3)cc1C#N`, the Activity in series [1] was 8%; in series [2] it was 0%.
In the case of `CC(C)Oc1ccc(COc2ccc3c(c2)OCCN(CCC(=O)O)C3)cc1C#N`, the Activity in series [1] amounted to 14%; in series [2], 24%.
For the compound `CC(C)Oc1ccc(COc2ccc3c(c2)CCN(S(=O)(=O)CCO)C3)cc1C#N`, the Activity came out at 44% in series [1] (filed as agonist) and 88% in series [2] (filed as agonist). In addition, the pEC50 in series [3] is 6.72.
With `CC(C)Oc1ccc(COc2ccc3c(c2)CCN(CCCCO)C3)cc1C#N`, the results for the Activity in series [1] and in series [2] were 3% and 24%, respectively.
